Test results reported in US20160030407A1, “Method of Treating Inflammatory Lung Disease” (priority 2010, published 2016).
Where “and” joins values, the source holds several entries; their conditions need not be identical. Equal values may be shown once.

Tests used:
[1] = Plasma pharmacokinetics after oral multi-dose anatabine polacrilex; assay type: in vivo, Sprague-Dawley rats; settings: for Anatabine Concentration in rat plasma: dose 0.2 mg/kg, male, individual animals
Experimental: This study consisted of two groups of 8 animals each, 4 males and 4 females.
The vehicle was sterile phosphate buffered saline (PBS) (Amresco). […] Two formulations were prepared; one for each of the two treatment groups. The test compound was formulated for each treatment group just prior to the first dose administration and constantly stirred until dosing was completed (Table 37). Four aliquots of each dose level formulation were collected and stored at −80° C.
The animals were weighed prior to dosing and received three doses p.o. of test compound at a volume of 5 mL/kg. Blood was collected via the venus plexus (retro-orbital) into tubes containing (K2) EDTA. No more than 0.5 mL was collected per time point.
Sample preparation. Plasma samples were treated with three volumes of methanol containing internal standard at 1 μM (R,S)-Antabine-2,4,5,6-d4), incubated 10 min at 4° C., and centrifuged. The amount of the test agent in the supernatant was determined by LC/MS/MS.
Analysis. Samples were analyzed by LC/MS/MS using an Agilent 6410 mass spectrometer coupled with an Agilent 1200 high pressure liquid chromatography (HPLC) and a CTC PAL chilled autosampler, all controlled by MassHunter software (Agilent). After separation on a Hydrophilic interaction liquid chromatography (HILIC) HPLC column (Sepax) using an acetonitrile-ammonium acetate/acetic acid gradient system, peaks were analyzed by mass spectrometry (MS) using ESI ionization in multiple reaction monitoring (MRM) mode. MassHunter software was used to calculate the concentration of the test compounds in samples from the peak area using the appropriate calibration curves.
Descriptive statistics were calculated for all pharmacokinetic parameters. Elimination half-lives (t1/2) were calculated by linear regression of logarithmically transformed plasma concentration data for each period between doses and following the final dose.
Total areas under the plasma concentration curves (AUC) and under the first moment curves (AUMC) were calculated using linear trapezoidal summation across all concentration time points as well as for intervals between each dose administration and following the final dose. […] Mean absorption times (MAT) were calculated according to the following relation: […]

[2] = test system: autoimmune thyroiditis; experiment: Autoimmune thyroiditis model (Example 16B): thyroid histopathology; assay type: in vivo, CBA/J mice; settings: 0.05 mg/ml in drinking water; day 21; p=0.023
Experimental: In another experiment, eighteen CBA/J female mice were immunized with mouse thyroglobulin, emulsified in complete Freund's adjuvant, on day 0 and day 7. One group of mice (n=10) drank regular water. […] Mice were sacrificed 21 days after the first immunization to collect the thyroid gland and the blood. The thyroid was analyzed for the presence of infiltrating mononuclear cells. The blood was analyzed for the levels of antibodies against thyroglobulin.

[3] = test system: BACE-1 mRNA; experiment: BACE-1 mRNA levels in SHSY cells (RTPCR); assay type: cell-based, human; settings: 30 minutes, TNF-α used to increase BACE expression
Description: TNF-α was used to increase BACE expression.

[4] = Anatabine 0.6 mg/kg, female rats, mean
[5] = Anatabine 0.6 mg/kg, male and female combined, mean
[6] = Anatabine 0.6 mg/kg, male rats, mean
[7] = Anatabine 6.0 mg/kg, female rats, mean
[8] = Anatabine 6.0 mg/kg, male and female combined, mean
[9] = Anatabine 6.0 mg/kg, male rats, mean
[10] = all data combined (overall), mean
[11] = both treatment groups combined, female rats, mean
[12] = females, 6.0 mg/kg BW group (3 x 2.0 mg/kg p.o.)

In the case of `C1=CCC(c2cccnc2)NC1` (racemic) [Anatabine, 1,2,3,6-tetrahydro-[2,3′]bipyridinyl], the “AUC0→∞” value [1, 4] is reported as 290 ng·h/mL, the “MAT0→4 (mean absorption time)” value [1, 4] is reported as 0.53 h and the “t1/2, 0→4 (elimination half-life after first dose)” value [1, 4] is reported as 2.06 h. The “t1/2, terminal” value [1, 4] was 1.80 h, the “MAT0→4 (mean absorption time)” value [1, 5] was 0.61 h and the “MTT0→4 (mean transit time)” value [1, 5] was 3.06 h. For the same compound, the “AUC0→∞” value [1, 6] was 280 ng·h/mL, the “MAT0→4 (mean absorption time)” value [1, 6] was 0.71 h and the “t1/2, terminal” value [1, 6] was 1.78 h. For the same compound, the “Cp, max (1)” value ([1]; Anatabine 6.0 mg/kg, female rats, after dose 1, mean) was 260 ng/mL, the “MAT0→4 (mean absorption time)” value [1, 7] was 0.30 h and the “t1/2, 0→4 (elimination half-life after first dose)” value [1, 7] was 1.82 h. The “MAT0→4 (mean absorption time)” value [1, 8] was 0.52 h, the “MTT0→4 (mean transit time)” value [1, 8] was 2.97 h and the “MAT0→4 (mean absorption time)” value [1, 9] was 0.73 h. The “t1/2, 0→4 (elimination half-life after first dose)” value [1, 9] was 1.76 h, the concentration at 30 min ([1]; Sprague-Dawley, rat, plasma, oral, 2 mg/kg BW, dose group 2, female, 30 min, mean) was 160 ng/mL and the concentration at 60 min ([1]; Sprague-Dawley, rat, plasma, oral, 2 mg/kg BW, dose group 2, female, 60 min, mean) was 129 ng/mL. The concentration at 235 min ([1]; Sprague-Dawley, rat, plasma, oral, 2 mg/kg BW, dose group 2, female, 235 min, mean) was 44 ng/mL, the concentration at 270 min ([1]; Sprague-Dawley, rat, plasma, oral, 2 mg/kg BW, dose group 2, female, 270 min, mean) was 316 ng/mL and the concentration at 300 min ([1]; Sprague-Dawley, rat, plasma, oral, 2 mg/kg BW, dose group 2, female, 300 min, mean) was 234 ng/mL. It also gave a concentration at 475 min ([1]; Sprague-Dawley, rat, plasma, oral, 2 mg/kg BW, dose group 2, female, 475 min, mean) of 192 ng/mL, a concentration at 540 min ([1]; Sprague-Dawley, rat, plasma, oral, 2 mg/kg BW, dose group 2, female, 540 min, mean) of 386 ng/mL and a concentration at 600 min ([1]; Sprague-Dawley, rat, plasma, oral, 2 mg/kg BW, dose group 2, female, 600 min, mean) of 325 ng/mL. For the same compound, the concentration at 720 min ([1]; Sprague-Dawley, rat, plasma, oral, 2 mg/kg BW, dose group 2, female, 720 min, mean) was 208 ng/mL, the “MAT0→4 (mean absorption time)” value [1, 10] was 0.56 h and the “MTT0→4 (mean transit time)” value [1, 10] was 3.01 h. The “t1/2, 0→4 (elimination half-life after first dose)” value [1, 10] was 1.93 h, the “MAT0→4 (mean absorption time)” value [1, 11] was 0.42 h and the “MTT0→4 (mean transit time)” value [1, 11] was 2.87 h. For the same compound, the “t1/2, 0→4 (elimination half-life after first dose)” value [1, 11] was 1.94 h, the “MAT0→4 (mean absorption time)” value ([1]; both treatment groups combined, male rats, mean) was 0.72 h and the “Anatabine Concentration in rat plasma” value ([1]; 30 min) was “<LOQ”. The “Anatabine Concentration in rat plasma” value ([1]; 235 min) was “<LOQ”, the “Anatabine Concentration in rat plasma” value ([1]; 475 min) was “<LOQ” and the “Anatabine Concentration in rat plasma” value ([1]; 600 min) was “<LOQ”. For the same compound, the “Anatabine Concentration in rat plasma” value ([1]; 720 min) was “<LOQ”, the “Avg. Conc. of Anatabine in plasma” value ([1]; dose group 0.2, combined male and female, 30 min, mean) was 36 ng/mL and the “Avg. Conc. of Anatabine in plasma” value ([1]; dose group 0.2, combined male and female, 60 min, mean) was 31 ng/mL. The “Avg. Conc. of Anatabine in plasma” value ([1]; dose group 0.2, combined male and female, 235 min, mean) was 10 ng/mL, the “Avg. Conc. of Anatabine in plasma” value ([1]; dose group 0.2, combined male and female, 270 min, mean) was 26 ng/mL and the “Avg. Conc. of Anatabine in plasma” value ([1]; dose group 0.2, combined male and female, 300 min, mean) was 27 ng/mL. The “Avg. Conc. of Anatabine in plasma” value ([1]; dose group 0.2, combined male and female, 475 min, mean) was 11 ng/mL, the “Avg. Conc. of Anatabine in plasma” value ([1]; dose group 0.2, combined male and female, 540 min, mean) was 30 ng/mL and the “Avg. Conc. of Anatabine in plasma” value ([1]; dose group 0.2, combined male and female, 600 min, mean) was 26 ng/mL. For the same compound, the “Avg. Conc. of Anatabine in plasma” value ([1]; dose group 0.2, combined male and female, 720 min, mean) was 13 ng/mL, the “Avg. Conc. of Anatabine in plasma” value ([1]; dose group 0.2, female, 30 min, mean) was 37 ng/mL and the “Avg. Conc. of Anatabine in plasma” value ([1]; dose group 0.2, female, 60 min, mean) was 35 ng/mL. For the same compound, the “Avg. Conc. of Anatabine in plasma” value ([1]; dose group 0.2, female, 235 min, mean) was 12 ng/mL, the “Avg. Conc. of Anatabine in plasma” value ([1]; dose group 0.2, female, 270 min, mean) was 26 ng/mL and the “Avg. Conc. of Anatabine in plasma” value ([1]; dose group 0.2, female, 300 min, mean) was 34 ng/mL. The “Avg. Conc. of Anatabine in plasma” value ([1]; dose group 0.2, female, 475 min, mean) was 8 ng/mL, the “Avg. Conc. of Anatabine in plasma” value ([1]; dose group 0.2, female, 540 min, mean) was 34 ng/mL and the “Avg. Conc. of Anatabine in plasma” value ([1]; dose group 0.2, female, 600 min, mean) was 28 ng/mL. For the same compound, the “Avg. Conc. of Anatabine in plasma” value ([1]; dose group 0.2, female, 720 min, mean) was 12 ng/mL, the “Avg. Conc. of Anatabine in plasma” value ([1]; dose group 0.2, male, 30 min, mean) was 33 ng/mL and the “Avg. Conc. of Anatabine in plasma” value ([1]; dose group 0.2, male, 60 min, mean) was 30 ng/mL. For the same compound, the “Avg. Conc. of Anatabine in plasma” value ([1]; dose group 0.2, male, 235 min, mean) was 11 ng/mL, the “Avg. Conc. of Anatabine in plasma” value ([1]; dose group 0.2, male, 270 min, mean) was 26 ng/mL and the “Avg. Conc. of Anatabine in plasma” value ([1]; dose group 0.2, male, 300 min, mean) was 26 ng/mL. For the same compound, the “Avg. Conc. of Anatabine in plasma” value ([1]; dose group 0.2, male, 475 min, mean) was 18 ng/mL, the “Avg. Conc. of Anatabine in plasma” value ([1]; dose group 0.2, male, 540 min, mean) was 38 ng/mL and the “Avg. Conc. of Anatabine in plasma” value ([1]; dose group 0.2, male, 600 min, mean) was 29 ng/mL. For the same compound, the “Avg. Conc. of Anatabine in plasma” value ([1]; dose group 0.2, male, 720 min, mean) was 12 ng/mL, the “Avg. Conc. of Anatabine in plasma” value ([1]; dose group 2, combined male and female, 30 min, mean) was 201 ng/mL and the “Avg. Conc. of Anatabine in plasma” value ([1]; dose group 2, combined male and female, 60 min, mean) was 139 ng/mL. The “Avg. Conc. of Anatabine in plasma” value ([1]; dose group 2, combined male and female, 235 min, mean) was 63 ng/mL, the “Avg. Conc. of Anatabine in plasma” value ([1]; dose group 2, combined male and female, 300 min, mean) was 222 ng/mL and the “Avg. Conc. of Anatabine in plasma” value ([1]; dose group 2, combined male and female, 600 min, mean) was 237 ng/mL. For the same compound, the “Avg. Conc. of Anatabine in plasma” value ([1]; dose group 2, combined male and female, 720 min, mean) was 194 ng/mL, the “Avg. Conc. of Anatabine in plasma” value ([1]; dose group 2, male, 30 min, mean) was 243 ng/mL and the “Avg. Conc. of Anatabine in plasma” value ([1]; dose group 2, male, 60 min, mean) was 165 ng/mL. For the same compound, the “Avg. Conc. of Anatabine in plasma” value ([1]; dose group 2, male, 235 min, mean) was 72 ng/mL, the “Avg. Conc. of Anatabine in plasma” value ([1]; dose group 2, male, 270 min, mean) was 303 ng/mL and the “Avg. Conc. of Anatabine in plasma” value ([1]; dose group 2, male, 300 min, mean) was 183 ng/mL. For the same compound, the “Avg. Conc. of Anatabine in plasma” value ([1]; dose group 2, male, 475 min, mean) was 97 ng/mL, the “Avg. Conc. of Anatabine in plasma” value ([1]; dose group 2, male, 540 min, mean) was 226 ng/mL and the “Avg. Conc. of Anatabine in plasma” value ([1]; dose group 2, male, 600 min, mean) was 151 ng/mL. The “Avg. Conc. of Anatabine in plasma” value ([1]; dose group 2, male, 720 min, mean) was 203 ng/mL, the “Cp, max, final value” [1, 12] was 374.8 ± 122.9 ng/mL and the “Cp, max, initial value” [1, 12] was 259.8 ± 35.4 ng/mL. For the same compound, the “Cp, min(2)” value ([1]; females, 6.0 mg/kg BW group, 6 mg/kg) was 180 ± 31 ng/mL and 180.0 ± 30.7 ng/mL, the “frequency and severity of thyroiditis” value [2] was “developed thyroiditis less frequently and of lower severity” and the “BACE-1 mRNA expression” value [3] was “reduced this signal in a concentration-dependent manner”.
